Four compounds from patent US20260240809A1 (EDMOND PHARMA SRL, priority 2022, published 2026) can be followed below.

As a reminder, the IC50 is the concentration that gives 50% inhibition. As a reminder, the solubility is the dissolved amount per volume that the medium holds. Higher therefore signals much dissolved substance.

One series relates to SH-SY5Y cells. In kind it is cell-based. Particulars: human. The procedure: Accordingly, two time points were explored: short (90 min) and long (24 hrs). In general, longer times of exposure may sometime influence the chosen response to the test conditions/substances; it is therefore important in the starting exploratory protocols to explore an adequate time interval.
The cellular toxicity was evaluated by measuring the mitochondrial activity through the MTT assay (Marchesi N. et al., 2020).
Mitochondrial enzymatic activity was estimated by MTT [3-(4,5-dimethylthiazol-2-yl)-2,5-diphenyltetrazolium bromide] assay (Sigma-Aldrich). A cell suspension of 2×10^4 cells/mL SH-SY5Y cell line was seeded into 96-well plates.
Following each treatment of 90 minutes and 24 hours, 50 μL of MTT (concentration equal to 2.5 mg/mL) were added to each well. After incubation at 37° C. for 3 hours, the purple formazan crystals were formed. The formed crystals were solubilized in dimethylsulfoxide (DMSO; Sigma-Aldrich). Specifically, after removing the MTT from the wells, 100 μL of DMSO were added in order to lyse the cellular and mitochondrial membranes, and solubilize the formazan crystals. After 10 minutes, absorbance values were measured at 595 nm using a Synergy HT microplate reader (BioTek Instruments) and the results expressed as % with respect to control. […]

Another series deals with T1, TrkA receptor (Homo sapiens, UniProt P04629).
T1 construct: host or cells: SH-SY5Y human neuroblastoma cells
T1 sequence (P04629 33-796): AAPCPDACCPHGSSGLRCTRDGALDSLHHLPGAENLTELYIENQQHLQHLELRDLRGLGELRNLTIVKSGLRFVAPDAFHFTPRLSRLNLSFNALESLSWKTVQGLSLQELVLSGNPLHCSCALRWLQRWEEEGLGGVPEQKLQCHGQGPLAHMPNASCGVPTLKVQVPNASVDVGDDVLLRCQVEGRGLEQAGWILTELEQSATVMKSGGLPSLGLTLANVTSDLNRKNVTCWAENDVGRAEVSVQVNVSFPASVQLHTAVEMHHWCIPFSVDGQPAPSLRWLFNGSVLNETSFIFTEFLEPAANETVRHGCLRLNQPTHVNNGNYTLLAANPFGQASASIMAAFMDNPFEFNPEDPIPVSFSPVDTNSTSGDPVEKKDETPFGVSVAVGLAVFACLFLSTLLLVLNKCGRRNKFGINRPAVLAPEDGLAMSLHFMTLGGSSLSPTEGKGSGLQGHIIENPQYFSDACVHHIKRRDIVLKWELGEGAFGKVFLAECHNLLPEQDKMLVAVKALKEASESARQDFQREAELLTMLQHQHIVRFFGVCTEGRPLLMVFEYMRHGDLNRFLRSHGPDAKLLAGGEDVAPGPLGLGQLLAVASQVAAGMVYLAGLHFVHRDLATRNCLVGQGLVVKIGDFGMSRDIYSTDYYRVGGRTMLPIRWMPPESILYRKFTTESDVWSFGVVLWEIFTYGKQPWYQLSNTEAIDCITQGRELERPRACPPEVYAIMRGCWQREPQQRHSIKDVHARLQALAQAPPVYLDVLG
The experiment in a line: Phospho-TrkA (Tyr674/675) ELISA: activation of TrkA receptor by NGF in SH-SY5Y cells. In kind it is cell-based. Particulars: for effect on basal activity in absence of NGF: FIG. 4. The procedure: The experiment is based on a commercially available ELISA assay evaluating the amount of phosphorylated TrkA (Pandre M K. et al., 2018) and used as indicated in the producer's protocol. The cell culture conditions were described in Marchesi N. et al., 2020.
All the experiments were performed under a laminar flow hood.
The phospho-TrkA (Tyr674/675) protein levels in SH-SY5Y cells were estimated with a specific ELISA kit (Cell Signaling, #7212C.), according to the manufacturer's instructions.
PathScan® Phospho-TrkA (Tyr674/675) Sandwich ELISA Kit is a solid phase sandwich enzyme-linked immunosorbent assay that detects […] levels of Phospho-TrkA (Tyr674/675) protein. A TrkA Mouse mAb #4614 has been coated onto the microwells. After incubation with cell lysates, both phospho- and nonphospho-TrkA proteins are captured by the coated antibody. Following extensive washing to remove any unbound antibody/reagent, Phospho-TrkA (Tyr674/675) Antibody #4610 is added to detect phospho-TrkA protein. Anti-rabbit IgG, HRP-linked Antibody #7074 is then used to recognize the bound detection antibody. HRP substrate, TMB (3,3′,5,5′-tetramethylbenzidine), is added to develop color. The magnitude of optical density is proportional to the quantity of Phospho-TrkA (Tyr674/675) protein.
The color development was stopped and the intensity of the color measured at 450 nm using a Synergy HT microplate reader (BioTek Instruments). The antibodies used in the kit were custom formulations specific for the kit.

Series [1] in a line: Solubility of the test substances. In kind it is physicochemical.
The mark [2] stands for this setting: 1 mM, 24 hrs, FIG. 9, Dunnett's test.
[3] abbreviates: 10 mM, 90 min, FIG. 4, Tukey's test.
Where [4] appears, read: 10 mM, 24 hrs, FIG. 8, Dunnett's test.
Where [5] appears, read: 10 mM, 24 hrs, FIG. 9, Dunnett's test.
Where [6] appears, read: SH-SY5Y, read-out: inhibition of TrkA activation by NGF, 10 mM, 24 hrs exposure, FIG. 8.
[7] abbreviates: 24 hrs exposure, no NGF, FIG. 8.
The mark [8] stands for this setting: SH-SY5Y, read-out: inhibition of NGF (reduction of the response to NGF).
The mark [9] stands for this setting: SH-SY5Y, read-out: inhibition of TrkA activation by NGF.

Each structure is given as a SMILES string. Converted amounts (≈) assume the structure as drawn. Where two headings read alike, the source gives them in different places.

`O=C(O)CSCC(=O)NC1CCSC1=O` (racemic) [erdosteine, (2-[N-3-(2-oxotetrahydrothienyl)]acetamido)-thioglycolic acid, reference compound]: the “decrease in mitochondrial activity” value in the series with SH-SY5Y cells (90 min, 20 mM) is on record as 16.3%. The “Statistically significant (NGF vs. substance + NGF)” value at TrkA receptor (0.1 mM, 24 h, FIG. 7, Tukey's test) is on record as “No”; on TrkA receptor (0.5 mM, 24 h, FIG. 7, Tukey's test), “Yes”; on TrkA receptor (1 mM, 24 h, FIG. 7, Tukey's test) it was “Yes”; at TrkA receptor (setting [2]), “No”; on TrkA receptor (5 mM, 24 h, FIG. 7, Tukey's test) it was “Yes”; at TrkA receptor (10 mM, 90', FIG. 6, Tukey's test), “Yes”. Also, the “Statistically significant (NGF vs. substance + NGF)” value at TrkA receptor (setting [3]) is given as “No”; on TrkA receptor (10 mM, 24 h, FIG. 6, Tukey's test) it was “Yes”; at TrkA receptor (10 mM, 24 h, FIG. 7, Tukey's test), “Yes”; on TrkA receptor (setting [4]), “Yes”; at TrkA receptor (setting [5]), “Yes”. For the same compound, the “inhibitory action on TrkA activation by NGF” value on TrkA receptor (0.1 mM, 24 hrs exposure, FIG. 7) was “ineffective”; on TrkA receptor (0.5 mM, 24 hrs exposure, FIG. 7), “a trend which is appreciable but not strongly statistically significant”; at TrkA receptor (1.0 mM, 24 hrs exposure, FIG. 7), “significant inhibitory action”. In addition, the “inhibition of TrkA activation by NGF at plateau” value at TrkA receptor (1 mM and higher (up to 10 mM), 24 hrs exposure, FIG. 7) is reported as “around 40%”. The “effect on basal activity in absence of NGF” value at TrkA receptor (90 min, no NGF) is reported as “do not modify”. Besides, the 50% inhibitory concentration (IC50) at TrkA receptor (24 hrs exposure, FIG. 9) lay in the range of 500 to 1000 µM. The inhibition at 10000 µM at TrkA receptor (SH-SY5Y, 10 mM, 24 hours exposure, FIG. 6, read-out: inhibition of TrkA phosphorylation) was found to be 42.2%; on TrkA receptor (SH-SY5Y, read-out: inhibition of NGF (reduction of the response to NGF), 10 mM, 90 min pre-exposure, NGF 100 ng/ml, FIG. 4), 8.2%; at TrkA receptor (SH-SY5Y, read-out: inhibition of TrkA activation by NGF, 10 mM, 90 min exposure, FIG. 6), 13.9%; at TrkA receptor (setting [6]) it was 36%. In series [1] (37 °C, aqueous buffer, MEM, warming 20 minutes at 37°), this compound showed a solubility at 20 min of 11 mg/mL (≈ 44.1 mM).
As for `O=C(O)CSCC(=O)N[C@@H]1CCSC1=O` [Erdo R], the “inhibition of TrkA activation by NGF” value on TrkA receptor (10 mM, 24 hrs exposure, FIG. 8) is recorded as 30%. Also, the “Statistically significant (NGF vs. substance + NGF)” value on TrkA receptor (setting [4]) is reported as “Yes”. Further, at TrkA receptor (setting [7]), the “effect on the basal activity” value is “no effect”.
`O=C(O)CSCC(=O)N[C@H]1CCSC1=O` [Erdo S]: the “Statistically significant (NGF vs. substance + NGF)” value was “No” on TrkA receptor (1 nM, 24 hrs, FIG. 9, Dunnett's test); “Yes” at TrkA receptor (100 nM, 24 hrs, FIG. 9, Dunnett's test); “Yes” on TrkA receptor (1 uM, 24 hrs, FIG. 9, Dunnett's test); “Yes” on TrkA receptor (0.01 mM, 24 hrs, FIG. 9, Dunnett's test); “Yes” on TrkA receptor (0.05 mM, 24 hrs, FIG. 9, Dunnett's test); “Yes” on TrkA receptor (0.1 mM, 24 hrs, FIG. 9, Dunnett's test). Besides, the “Statistically significant (NGF vs. substance + NGF)” value on TrkA receptor (setting [2]) is reported as “No”; on TrkA receptor (5 mM, 24 hrs, FIG. 9, Dunnett's test) it was “Yes”; at TrkA receptor (setting [4]), “Yes”; on TrkA receptor (setting [5]) it was “Yes”. In addition, the “effect on TrkA activation by NGF” value at TrkA receptor (100 nM, 24 hrs, no change up to 10 mM, FIG. 9) was “already maximal”. The half-maximal inhibitory concentration (IC50) at TrkA receptor (24 hrs exposure, FIG. 9) lay within 0.001 to 0.1 µM. For the same compound, the “effect on the basal activity” value on TrkA receptor (setting [7]) is “no effect”. In addition, the inhibition at 10000 µM at TrkA receptor (setting [6]) was found to be 41%.
With `O=C(O)CSCC(=O)NC(CCS)C(=O)O` (stereo not shown) [Met-1], the “decrease of mitochondrial activity” value in the series on SH-SY5Y cells (24 h, 10 mM) is 17.5%. The “Statistically significant (NGF vs. substance + NGF)” value at TrkA receptor (setting [3]) was “Yes”; at TrkA receptor (20 mM, 90 min, FIG. 3, Tukey's test) it was “Yes”; at TrkA receptor (20 mM, 90 min, FIG. 4, Tukey's test), “Yes”; at TrkA receptor (40 mM, 90 min, FIG. 3, Tukey's test), “Yes”. Besides, the “effect on basal pTrkA levels (substance alone)” value on TrkA receptor (20 and 40 mM, 90 min, no NGF, FIG. 3) is “did not alter”. Also, on TrkA receptor (90 min, no NGF), the “effect on basal activity in absence of NGF” value is recorded as “do not modify”. For the same compound, the inhibition at 10000 µM on TrkA receptor (setting [8]) is 23%. Also, the inhibition at 20000 µM on TrkA receptor (setting [8]) was 24.5%; at TrkA receptor (setting [9]) it was 34%. Moreover, the inhibition at 40000 µM on TrkA receptor (setting [9]) is 52%. Moreover, the solubility in series [1] (water) worked out at 164 mg/mL (≈ 613 mM).
